# pIC50: −log10 of the molar value. Calls of active or inactive are those of the source. The rule behind the calls is not given here.
# Columns and labels:
# [1] = target: T1, Amine oxidase [flavin-containing] A (Homo sapiens, UniProt P21397); experiment: Inhibition of human MAO-A using kynuramine as substrate at 10 uM incubated for 30 mins by spectrophotometry analysis relative to control; details: 0.5 h
# T1 sequence (P21397 whole entry): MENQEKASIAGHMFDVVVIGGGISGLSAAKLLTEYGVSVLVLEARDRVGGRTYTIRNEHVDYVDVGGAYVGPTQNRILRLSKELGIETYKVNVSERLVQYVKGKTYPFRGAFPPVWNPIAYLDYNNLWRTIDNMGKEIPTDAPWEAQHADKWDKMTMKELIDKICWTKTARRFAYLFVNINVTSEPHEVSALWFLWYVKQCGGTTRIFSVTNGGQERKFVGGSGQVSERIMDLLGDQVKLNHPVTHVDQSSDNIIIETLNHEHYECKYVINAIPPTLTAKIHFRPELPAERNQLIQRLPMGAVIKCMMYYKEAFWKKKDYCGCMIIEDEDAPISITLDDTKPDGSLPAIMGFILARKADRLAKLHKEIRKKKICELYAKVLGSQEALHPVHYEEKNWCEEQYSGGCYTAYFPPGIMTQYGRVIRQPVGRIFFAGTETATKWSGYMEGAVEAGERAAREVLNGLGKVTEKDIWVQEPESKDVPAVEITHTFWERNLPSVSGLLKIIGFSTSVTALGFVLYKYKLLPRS
# [2] = target: T2, Amine oxidase [flavin-containing] B (Homo sapiens, UniProt P27338); experiment: Inhibition of human MAO-B using kynuramine as substrate at 10 uM incubated for 30 mins by spectrophotometry analysis relative to control; details: 0.5 h
# T2 sequence (P27338 whole entry): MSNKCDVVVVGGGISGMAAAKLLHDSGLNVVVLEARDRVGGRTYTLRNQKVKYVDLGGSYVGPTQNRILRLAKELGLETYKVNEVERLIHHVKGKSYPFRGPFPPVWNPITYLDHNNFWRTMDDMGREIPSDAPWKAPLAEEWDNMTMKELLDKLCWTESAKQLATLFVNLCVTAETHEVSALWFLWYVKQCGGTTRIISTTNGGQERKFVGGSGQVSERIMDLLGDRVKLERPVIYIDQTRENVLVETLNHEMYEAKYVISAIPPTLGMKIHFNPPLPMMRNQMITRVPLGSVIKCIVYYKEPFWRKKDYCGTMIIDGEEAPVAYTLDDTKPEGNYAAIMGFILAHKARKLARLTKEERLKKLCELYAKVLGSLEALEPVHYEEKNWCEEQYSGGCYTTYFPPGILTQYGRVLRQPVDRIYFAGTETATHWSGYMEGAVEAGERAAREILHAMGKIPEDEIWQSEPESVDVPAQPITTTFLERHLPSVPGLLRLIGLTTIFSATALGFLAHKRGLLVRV
# [3] = target: T3, Catechol O-methyltransferase (Rattus norvegicus) (UniProt P22734); experiment: Inhibition of S-COMT in rat liver homogenates using adrenaline as substrate and SAM as cofactor at 30 uM preincubated for 20 mins followed by substrate addition and measured after 5 mins relative to control; assay type: tissue-based; details: time 25.0 min
# T3 sequence (whole entry): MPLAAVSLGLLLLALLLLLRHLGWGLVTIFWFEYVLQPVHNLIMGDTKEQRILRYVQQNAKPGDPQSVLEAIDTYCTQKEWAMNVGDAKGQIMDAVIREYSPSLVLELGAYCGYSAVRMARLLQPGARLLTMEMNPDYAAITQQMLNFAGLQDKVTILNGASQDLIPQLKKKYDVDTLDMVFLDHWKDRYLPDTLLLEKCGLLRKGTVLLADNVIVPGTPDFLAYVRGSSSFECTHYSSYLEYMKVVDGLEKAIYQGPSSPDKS
# [4] = target: T4, Catechol O-methyltransferase (Rattus norvegicus, UniProt P22734); experiment: Inhibition of MB-COMT in rat liver homogenates using adrenaline as substrate and SAM as cofactor preincubated for 20 mins followed by substrate addition and measured after 5 mins; assay type: tissue-based
# T4 sequence (P22734 whole entry): T3 sequence (whole entry)
# [5] = target: T4, Catechol O-methyltransferase; experiment: Inhibition of MB-COMT in rat brain homogenates using adrenaline as substrate and SAM as cofactor preincubated for 20 mins followed by substrate addition and measured after 5 mins; assay type: tissue-based
# Rattus norvegicus = species on record: Rattus norvegicus; experiment: Selectivity index, ratio of IC50 for S-COMT in rat liver homogenates to IC50 for MB-COMT in rat brain homogenates; assay type: tissue-based
# [6] = Antioxidant activity assessed as ORAC-FL index; assay type: functional
# SH-SY5Y [7] = experiment: Cytotoxicity against retinoic acid and TPA-differentiated human SH-SY5Y cells assessed as reduction in metabolic activity by measuring reduction in resorufin fluorescence at 10 to 50 uM incubated for 24 hrs by resazurin dye based assay; assay type: toxicity, cell-based; details: dose 10-50 µM
# SH-SY5Y [8] = experiment: Cytotoxicity against retinoic acid and TPA-differentiated human SH-SY5Y cells assessed as reduction in lysosomal activity by measuring neutral red dye uptake at 10 uM incubated for 24 hrs by neutral red dye based assay relative to control; assay type: toxicity, cell-based; parameters: scale not given: the % may be the effect or the level left
# SH-SY5Y [9] = experiment: Cytotoxicity against retinoic acid and TPA-differentiated human SH-SY5Y cells assessed as reduction in lysosomal activity at 50 uM incubated for 24 hrs by neutral red dye based assay; assay type: toxicity, cell-based
# SH-SY5Y [10] = experiment: Cytoprotective activity against t-BHP induced oxidative stress in retinoic acid and TPA-differentiated human SH-SY5Y cells assessed as increase in resorufin fluorescence at 10 uM pretreated for 30 mins followed by t-BHP stimulation and measured after 24 hrs by resazurin dye based analysis; assay type: functional, cell-based; details: time 24.5 hrs
# [11] = Oxidation potential of compound at pH 7.3 by differential pulse voltammetry analysis; assay type: physicochemical
# SH-SY5Y [12] = experiment: Cytotoxicity against retinoic acid and TPA-differentiated human SH-SY5Y cells assessed as reduction in lysosomal activity by measuring neutral red dye internalization at 10 to 50 uM incubated for 24 hrs by neutral red dye based assay; assay type: toxicity, cell-based; details: dose 10-50 µM
# SH-SY5Y [13] = experiment: Cytotoxicity against retinoic acid and TPA-differentiated human SH-SY5Y cells assessed as reduction in metabolic activity by measuring resazurin reduction at 10 uM incubated for 24 hrs by resazurin dye based assay relative to control; assay type: toxicity, cell-based; parameters: scale not given: the % may be the effect or the level left
# [14] = target: T2, Amine oxidase [flavin-containing] B; experiment: Inhibition of human MAO-B using kynuramine as substrate incubated for 30 mins by spectrophotometry analysis
# Homo sapiens = species on record: Homo sapiens; experiment: Selectivity index, ratio of IC50 for human MAO-A to IC50 for human MAO-B
# [15] = target: T3, Catechol O-methyltransferase (Rattus norvegicus); experiment: Inhibition of MB-COMT in rat liver homogenates using adrenaline as substrate and SAM as cofactor at 30 uM preincubated for 20 mins followed by substrate addition and measured after 5 mins relative to control; assay type: tissue-based; details: time 25.0 min
# [16] = target: T3, Catechol O-methyltransferase (Rattus norvegicus); experiment: Inhibition of MB-COMT in rat brain homogenates using adrenaline as substrate and SAM as cofactor at 30 uM preincubated for 20 mins followed by substrate addition and measured after 5 mins relative to control; assay type: tissue-based; details: time 25.0 min
# SH-SY5Y [17] = experiment: Cytotoxicity against retinoic acid and TPA-differentiated human SH-SY5Y cells assessed as increase in intracellular ROS formation by measuring increase in DCF fluorescence at 10 to 50 uM incubated for 24 hrs by DCF fluorescence analysis; assay type: toxicity, cell-based; details: dose 10-50 µM
# [18] = Retention time of compound at pH 2.6 by LC/UV analysis; assay type: physicochemical; details: buffer
# [19] = Chromatographic hydrophobicity index of compound at pH 2.6 by HPLC analysis; assay type: physicochemical
Structure (SMILES),inhibition at 10 µM [1],inhibition at 10 µM [2],inhibition [3],pIC50 [4],pIC50 [5],Ratio IC50 (Rattus norvegicus),Activity index [6],Activity (SH-SY5Y [7]),Activity (SH-SY5Y [8]),Activity (SH-SY5Y [9]),Activity (SH-SY5Y [10]),Ep [11],Activity (SH-SY5Y [13]),pIC50 [14],Ratio IC50 (Homo sapiens),also measured
O=C(/C=C/C=C/c1ccc(O)c(O)c1)NCCc1ccccc1,< 50%,< 50%,< 50%,5.44,5.88,> 22,3.3,Non-Toxic,> 85%,Toxic,Active,124 mV,,,,
O=C(O)/C=C/c1ccc(O)c(O)c1 [CAFFEIC ACID],< 50%,< 50%,,,,,4.8,Non-Toxic,,,,168 mV,,,,Activity (SH-SY5Y [12]): Non-Toxic
O=C(/C=C/C=C/c1ccc(O)c(O)c1)NCc1ccccc1,< 50%,< 50%,< 50%,5.37,5.83,> 20,4,,> 85%,Toxic,Active,129 mV,> 85%,,,
N#C/C(=C\C=C\c1ccc(O)c(O)c1)C(=O)Nc1ccccc1,< 50%,,< 50%,5.43,5.62,> 12,3.5,,> 85%,Toxic,Active,161 mV,> 85%,5.34,> 2.2,
O=C(O)/C=C/C=C/c1ccc(O)c(O)c1 [DEMETHYLENATED PIPERIC ACID],< 50%,< 50%,< 50%,,,,5.5,Non-Toxic,,,inactive,129 mV,,,,inhibition [15]: < 50%; inhibition [16]: < 50%; Activity (SH-SY5Y [12]): Non-Toxic; Activity (SH-SY5Y [17]): Non-Toxic
O=C(/C=C/C=C/c1ccc(O)c(O)c1)Nc1ccccc1,< 50%,< 50%,< 50%,5.21,5.79,> 19,4.1,,> 85%,Toxic,Active,114 mV,> 85%,,,
C[C@H](NCc1ccc(OCc2cccc(F)c2)cc1)C(N)=O [SAFINAMIDE],< 50%,,,,,,,,,,,,,,,
N#C/C(=C\C=C\c1ccc(O)c(O)c1)C(=O)NCCc1ccccc1,< 50%,,< 50%,5.40,5.90,> 24,3,Non-Toxic,> 85%,Toxic,Active,163 mV,,5.36,> 2.3,
N#C/C(=C\C=C\c1ccc(O)c(O)c1)C(=O)O,< 50%,< 50%,< 50%,,,,4.9,Non-Toxic,,,inactive,144 mV,,,,inhibition [15]: < 50%; inhibition [16]: < 50%; Activity (SH-SY5Y [12]): Non-Toxic
O=C(/C=C/C=C/c1ccc(O)c(O)c1)N1CCCCC1,< 50%,,< 50%,5.42,5.78,> 18,4.3,,> 85%,Toxic,Active,113 mV,> 85%,5.60,> 4,Activity (SH-SY5Y [17]): Non-Toxic; Retention_time [18]: 10.08 min; CHI [19]: 49.61
N#C/C(=C\C=C\c1ccc(O)c(O)c1)C(=O)NCc1ccccc1 [LS-104],< 50%,,< 50%,,,,2.8,,> 85%,Toxic,Active,174 mV,> 85%,5.94,> 8.7,inhibition [15]: < 50%; inhibition [16]: < 50%

# Source: ChEMBL document CHEMBL5352424, “Boosting caffeic acid performance as antioxidant and monoamine oxidase B/catechol-O-methyltransferase inhibitor” (Eur J Med Chem, 2022)
